According to patent US20140343017A1, “PYRROLE COMPOUND” (Kabushiki Kaisha Yakult Honsha, priority 2012, published 2014):

System: PTX-resistant H460/PV2-7 cells
Experiment: Inhibitory effect on growth of PTX-resistant tumor cell line highly expressing TUBB3 (in vitro)
Format: cell-based, human
Conditions: for Resistance rate: H460/PV2-7 versus parent line H460; for IC50: Homo sapiens, NCI-H460, H460/PV2-7 cells, 96 hours culture, WST-8

Row | Compound | Resistance rate | IC50 [nM] | Resistance rate (listed as PTX)
1 | CO[C@H]1C(=O)[C@]2(C)[C@@H](OC)C[C@H]3OC[C@@]3(OC(C)=O)[C@H]2[C@H](OC(=O)c2ccccc2)[C@]2(O)C[C@H](OC(=O)[C@H](O)[C@@H](NC(=O)OC(C)(C)C)c3ccccc3)C(C)=C1C2(C)C [Cabazitaxel, cabazitaxel] | 3.2 | 4 | –
2 | Cc1c(-c2nnn(CCO)n2)[nH]c(CO)c1C(=O)c1cccc(Br)c1 [Compound 121, (3-bromophenyl)(5-(2-(2-hydroxyethyl)-2H-tetrazol-5-yl)-2-(hydroxymethyl)-4-methyl-1H-pyrrol-3-yl)methanone] | 0.27 | 20.6 | –
3 | Cc1c(-c2nnn(CCO)n2)[nH]c(C(C)O)c1C(=O)c1cccc(Br)c1 (stereo not shown) [Compound 123, (3-bromophenyl)(2-(1-hydroxyethyl)-5-(2-(2-hydroxyethyl)-2H-tetrazol-5-yl)-4-methyl-1H-pyrrol-3-yl)methanone] | 0.31 | 21 | –
4 | CNC(=O)c1[nH]c(-c2nnn(CCO)n2)c(C)c1C(=O)c1cccc(Br)c1 [Compound 142, 3-(3-bromobenzoyl)-5-(2-(2-hydroxyethyl)-2H-tetrazol-5-yl)-N,4-dimethyl-1H-pyrrole-2-carboxamide] | 0.29 | 108 | –
5 | CC(=O)O[C@@]12CO[C@@H]1C[C@H](O)[C@@]1(C)C(=O)[C@H](O)C3=C(C)[C@@H](OC(=O)[C@H](O)[C@@H](NC(=O)OC(C)(C)C)c4ccccc4)C[C@@](O)([C@@H](OC(=O)c4ccccc4)[C@H]21)C3(C)C [Docetaxel, docetaxel] | 2.6 | 4 | –
6 | CC(=O)O[C@H]1C(=O)[C@@]2(C)[C@H]([C@H](OC(=O)c3ccccc3)[C@]3(O)C[C@H](OC(=O)[C@H](O)[C@@H](NC(=O)c4ccccc4)c4ccccc4)C(C)=C1C3(C)C)[C@]1(OC(C)=O)CO[C@@H]1C[C@@H]2O [Paclitaxel, paclitaxel, reference compound] | 4.6 | 16.5 | approximately 4.6
